Data on one molecule can be found in US11285139B2, “Treatment of CNS conditions” (Takeda Pharmaceutical Company Limited, priority 2017, dated 2022).

Molecules are shown by their SMILES.

Holding throughout (type): in vivo
The nature of data set [1]: single-rising dose (SRD) first-in-human study, safety evaluation. Here is the method: (§1) Four clinical studies including a single-rising dose (SRD) first-in-human study, a single-dose positron emission tomography (PET) target occupancy study, a multiple-rising dose (MRD) study, and a single-dose relative bioavailability (BA) and food-effect study were conducted.
Data set [2] addresses T1, CH24H (Homo sapiens, UniProt Q9Y6A2).
T1 construct: single-dose positron emission tomography (PET) target occupancy study; from tissue; host or cells: brain of study participants, in vivo (brain is inferred from the statement that CH24H is expressed in neurons)
The experiment in a line: single-dose positron emission tomography (PET) target occupancy study. The procedure:
as §1
The pharmacokinetics (PK) and pharmacodynamics (PD) of (4-benzyl-4-hydroxypiperidin-1-yl) (2,4′-bipyridin-3-yl)methanone were characterized in these studies.

In data set [3] the test system is Scn1a+/−mice. Description: spontaneous seizures in Scn1a+/− mouse model of Dravet syndrome. The settings on record: chow containing 0.02% (w/w) for 2 weeks, started at 17-18 days after birth; control group 23.9%. Here is the method: The following Example provides data from a heterozygous deletion of a Scn1a mouse model (Scn1a+/−mice) of Dravet syndrome, a developmental epileptic encephalopathy subtype. Myoclonic and generalized tonic-clonic seizures are observed, which correlate to symptoms in humans. Therefore, (4-benzyl-4-hydroxypiperidin-1-yl) (2,4′-bipyridin-3-yl)methanone was tested in Scn1a+/−mice for its potential effects on seizure. At 17-18 days after birth, mice were weaned and started on treatment either with control chow or chow containing (4-benzyl-4-hydroxypiperidin-1-yl) (2,4′-bipyridin-3-yl)methanone 0.02% (w/w) for 2 weeks. Spontaneous seizures were continuously monitored. The seizure free rate during the study period for the control group was 23.9%.

T1 sequence (Q9Y6A2 whole entry): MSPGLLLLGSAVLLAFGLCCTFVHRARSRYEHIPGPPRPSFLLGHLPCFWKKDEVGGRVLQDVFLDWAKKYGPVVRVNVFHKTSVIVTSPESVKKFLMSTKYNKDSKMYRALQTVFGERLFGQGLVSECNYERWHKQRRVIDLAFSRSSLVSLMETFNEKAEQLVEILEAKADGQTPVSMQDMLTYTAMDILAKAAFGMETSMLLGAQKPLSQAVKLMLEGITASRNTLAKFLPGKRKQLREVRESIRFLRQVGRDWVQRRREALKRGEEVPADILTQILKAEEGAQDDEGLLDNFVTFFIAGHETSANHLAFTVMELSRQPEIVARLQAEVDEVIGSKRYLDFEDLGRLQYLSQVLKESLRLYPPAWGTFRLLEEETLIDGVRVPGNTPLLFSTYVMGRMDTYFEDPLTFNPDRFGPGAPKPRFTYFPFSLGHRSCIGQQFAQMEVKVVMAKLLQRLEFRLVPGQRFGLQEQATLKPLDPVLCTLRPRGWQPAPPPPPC

For `O=C(c1cccnc1-c1ccncc1)N1CCC(O)(Cc2ccccc2)CC1` [(4-benzyl-4-hydroxypiperidin-1-yl) (2,4′-bipyridin-3-yl)methanone], in data set [1] (all cohorts, 15-1350 mg single oral dose), the “serious pretreatment events or post treatment adverse events” value is given as “No serious pretreatment events or post treatment adverse events were reported”. Moreover, the safety and tolerability entry in data set [1] (doses up to 1350 mg single dose, healthy male and female subjects) is “generally safe and well tolerated”. The “plasma 24HC concentrations” value in data set [2] was “dose-dependent decreases”. The PET occupancy measurements entry in data set [2] (correlated with circulating levels of 24HC) is “dose- and time-dependent”. Further, in data set [3], the “seizure free rate during the study period” value is reported as 91.7%.
